One test relates to Human neurons. In words: inhibition of neurodegeneration by hydrogen peroxide (Alamar Blue respiration). The note with it: hydrogen peroxide 50 uM for up to 6 hrs, FIG. 1. The test is classed as cell-based. As to the method:
Dysfunctional neurons were initiated using any of the above agents or using hydrogen peroxide at 1-100 μM concentration. Using a dye that measures metabolic activity of the cells, such as MTT or ALAMARBLUE®, we determined the reduction of respiratory capacity of the cells, which indicated neuron dysfunction. The ability of neurogenic agents to inhibit hydrogen peroxide-induced reduction in cellular respiration was used as a measure of inhibition of neuronal dysfunction, a potential step that lead to degeneration.
Certain compounds were further analyzed to determine their ability to inhibit neurodegeneration by hydrogen peroxide. Human neurons are treated with hydrogen peroxide (50 uM) for up to 6 hrs and then neuronal loss is measured using Alamar Blue respiration.
For orientation: Alamar Blue is a resazurin reagent that responds to reducing activity.

Test [1] relates to human neuronal progenitors cells. In words: in vitro neurogenesis test. The test is classed as cell-based. The note with it: MAP-2 staining on day 11; differentiation media; vehicle 0.2% DMSO in DMEM/F12. As for the experimental part: The in vitro neurogenesis test was performed using human neuronal progenitors cells. By way of background, the human neuronal progenitor cells can be cultured in media and have the potential to produce mature functional neurons. The neurogenesis factor in the culture media can promote the number of the progenitor cells which differentiate into neurons. Indeed, it is a widely accepted in vitro model to test a chemical's neurogenetic property.
Cells were obtained as human neuronal progenitors from a commercial source and were grown for up to three passages or at any time differentiated to potentially produce mature functional neurons in culture. Following two passages to expand the cells, progenitors were seeded into multi-well microplates and the media were changed to differentiation media (minus serum and mitogen). Within 2 hrs of this media change, a vehicle, positive control or test compound were added to each well. Also, they were added with every further media change (50% volume change every other day). Control wells contained cells and vehicle (0.2% DMSO in DMEM/F12). […]
The cells were stained using MAP-2, a neuronal marker, on day 11. Then, each test compound was assessed for the ability to promote an increase in neuron number and compared with the positive control, leukemia inhibitory factor (LIF).

As to `CCN1CCCC1Cn1cnc2c(-c3ccc(OC)cc3)nsc2c1=O` (stereo not shown) [NNI-A, 6-((1-ethylpyrrolidin-2-yl)methyl)-3-(4-methoxyphenyl)isothiazolo[4,5-d]pyrimidin-7(6H)-one], the “loss of respiration (neuronal loss) when added along with hydrogen peroxide” value in the test with Human neurons is on record as “less loss of respiration”.

Regarding `COc1ccc(-c2nsc3c(=O)n(CCCN4CCOCC4)cnc23)cc1` [3-(4-Methoxyphenyl)-6-[3-(4-morpholinyl)propyl]-isothiazolo[4,5-d]pyrimidin-7-(6H)-one], in test [1], the “Effects of compounds on the increase in the neuron numbers compared with the vehicle control, % of Control” value amounted to 115%.

With `CCN1CCCC1Cn1cnc2c(-c3ccc(OC)cc3)nsc2c1=O` (stereo not shown) [3-(4-Methoxyphenyl)-6-[(1-ethylpyrrolidin-2-yl)methyl]-isothiazolo[4,5-d]pyrimidin-7(6H)-one], in test [1], the “Effects of compounds on the increase in the neuron numbers compared with the vehicle control, % of Control” value worked out at 107%.

Take `CCN1CCCC1Cn1cnc2c(-c3ccc(F)cc3)nsc2c1=O` (stereo not shown) [NNI-B, 6-((1-ethylpyrrolidin-2-yl)methyl)-3-(4-fluorophenyl)isothiazolo[4,5-d]pyrimidin-7(6H)-one]: the “loss of respiration (neuronal loss) when added along with hydrogen peroxide” value in the test on Human neurons is on record as “less loss of respiration”.

(Values after patent publication US9592234B2, “Methods and compositions for stimulating neurogenesis and inhibiting neuronal degeneration using isothiazolopyrimidinones” (Neuronascent, Inc., priority 2007, dated 2017).)
